{
  "source": "patent US20040110124A1",
  "about": "“Method of enhancing radiation resistance of normal cells” (priority 2002, published 2004)",
  "assay_type_in_all_cases": "cell-based",
  "key": {"Rat-1 cells": {"system": "Rat-1 cells", "experiment": "Membrane potential recorded with fluorescent probe bis-oxonol", "experimental": "FIG. 1. Fluorescence measurement of Rat-1 cells before (Line A) and after (Line B) valinomycin (1.0 μM) treatment.\n(§1) Three normal cell lines (Rat-1, a fibroblast cell line; MS-1, an endothelial cell line and MDCK, a epithelial cell line) were studied. All three cell lines were cultured in Dulbecco's modified Eagle medium supplemented with 10% fetal calf serum, 100 U/ml penicillin and 100 ug/ml streptomycin (Gibco BRL, Gaithersburg, Md.) at 37° C. with 5% CO2. Cells were irradiated with a ^137Cs source at a dose rate of 300 cGy/min, and the viability of cells was measured by the MTT assay. Valinomycin was used as an agent to hyperpolarize the plasma membrane. The membrane potential was recorded with a fluorescent probe bis-oxonol, a negatively charged potential-sensitive fluorescent dye, which is distributed across the plasma membrane. Binding of this probe to intracellular components is dependent upon the membrane potential."}, "Rat-1 fibroblast cells": {"system": "Rat-1 fibroblast cells", "experiment": "Cell survival after irradiation, MTT assay, normal fibroblast cells", "settings": "light or radiation study, Rat-1, irradiated at 20 Gy, 1.0 μM valinomycin for 2 hours, 25% without valinomycin, read-out: relative survival (% of control)", "experimental": "(§2) FIG. 2. Effect of valinomycin on radiation response of normal fibroblast cells. Rat-1 fibroblast cells were irradiated with 0-20 Gy in presence or absence of valinomycin. Valinomycin (0.01-1.0 μM) was added in the growth media immediately prior to irradiation, and removed at 2 hours or 3 days post irradiation. Three days after irradiation, cell survival was assessed by using the MTT assay.\nas §1"}, "MS1 endothelial cells": {"system": "MS1 endothelial cells", "experiment": "Cell survival after irradiation, MTT assay, normal endothelial cells", "settings": "light or radiation study, MS-1, irradiated at 20 Gy, 1.0 μM valinomycin for 2 hours, 45% without valinomycin, read-out: relative survival (% of control)", "experimental": "(§3) FIG. 3. Effect of valinomycin on radiation response of normal endothelial cells. MS1 endothelial cells were irradiated with 0-20 Gy in the presence or absence of valinomycin. Valinomycin (0.01-1.0 μM) was added in the growth media immediately prior to irradiation, and removed at 2 hours or 3 days post irradiation. Three days after irradiation, cell survival was assessed by using the MTT assay.\nas §1"}, "MDCK epithelial cells": {"system": "MDCK epithelial cells", "experiment": "Cell survival after irradiation, MTT assay, normal epithelial cells", "settings": "Canis lupus familiaris, light or radiation study, irradiated at 20 Gy, 1.0 μM valinomycin for 2 hours, 58% without valinomycin, read-out: relative survival (% of control)", "experimental": "FIG. 4. Effect of valinomycin on radiation response of normal epithelial cells. MDCK epithelial cells were irradiated with 0-20 Gy in the presence or absence of valinomycin. Valinomycin (0.01-1.0 μM) was added in the growth media immediately prior to irradiation, and removed at 2 hours or 3 days post irradiation. Three days after irradiation, cell survival was assessed by using the MTT assay.\nas §1"}, "[1]": {"system": "Rat-1, MS-1 and MDCK cells", "experiment": "Cell survival after irradiation, MTT assay, all three normal cell lines together", "settings": "valinomycin 0.01 μM to 1.0 μM", "experimental": "as §2, §3\nFIG. 4. Effect of valinomycin on radiation response of normal epithelial cells. […] Three days after irradiation, cell survival was assessed by using the MTT assay.\nThree normal cell lines (Rat-1, a fibroblast cell line; MS-1, an endothelial cell line and MDCK, a epithelial cell line) were studied. […] Cells were irradiated with a ^137Cs source at a dose rate of 300 cGy/min, and the viability of cells was measured by the MTT assay. […] The membrane potential was recorded with a fluorescent probe bis-oxonol, a negatively charged potential-sensitive fluorescent dye, which is distributed across the plasma membrane. […]"}},
  "data": [
    {"smiles": "CC(C)[C@@H]1NC(=O)[C@H](C)OC(=O)[C@@H](C(C)C)NC(=O)[C@@H](C(C)C)OC(=O)[C@H](C(C)C)NC(=O)[C@H](C)OC(=O)[C@@H](C(C)C)NC(=O)[C@@H](C(C)C)OC(=O)[C@H](C(C)C)NC(=O)[C@H](C)OC(=O)[C@@H](C(C)C)NC(=O)[C@@H](C(C)C)OC1=O", "note": "[valinomycin]", "values": [
      {"measurement": "fluorescent reading, plasma membrane polarization", "setting": "Rat-1 cells; valinomycin 1.0 μM, incubation 2 hours, Rat-1 cells (FIG. 1)", "result": "decrease in fluorescent reading"},
      {"measurement": "decrease of intracellular fluorescence (bis-oxonol)", "setting": "Rat-1 cells; valinomycin 0.01-1 nM for 2 hours or 3 days", "result": "55-60%"},
      {"measurement": "intracellular fluorescence after valinomycin treatment", "setting": "Rat-1 cells; valinomycin 0.01-1 nM for 2 hours or 3 days, 0.44-0.5 prior to treatment", "result": "0.18-0.20"},
      {"measurement": "activity at 1 µM", "setting": "Rat-1 fibroblast cells", "result": 67, "unit": "%"},
      {"measurement": "activity at 1 µM", "setting": "MS1 endothelial cells", "result": 92, "unit": "%"},
      {"measurement": "activity at 1 µM", "setting": "MDCK epithelial cells", "result": 82, "unit": "%"},
      {"measurement": "radiation protective effect across concentrations", "setting": "[1]", "result": "very similar radiation protective effects"}
    ]}
  ]
}
